In US9108957B2 (MITSUBISHI TANABE PHARMA CORPORATION, priority 2009, dated 2015):

biological target: human recombinant TPK1 (Homo sapiens, UniProt P49841); assay: Inhibitory activity against P-GS1 phosphorylation by TPK1 (Kinase Glo luminescence); type: biochemical; conditions: 7.5 μM P-GS1, 10 μM ATP, 25° C. for 16 hours, Kinase Glo Reagent luminescent signal
Method: Inhibitory Activity of the Medicament of the Present Invention Against P-GS1 Phosphorylation by Bovine Cerebral TPK1
A mixture containing 100 mM HEPES-sodium hydroxide (pH 7.2), 1 mM magnesium acetate, 1 mM EGTA, 1 mM dithiothreitol (DTT), 0.02% Tween 20, 7.5 μM P-GS1, 10 μM ATP, human recombinant TPK1 and a compound shown in Table (a final mixture contained 1% DMSO deriving from a solution of a test compound prepared in the presence of 10% DMSO) was used as a reaction system. The phosphorylation was started by adding ATP, and the reaction was conducted at 25° C. for 16 hours. Then equal volume of Kinase Glo Reagent (Promega) was added to the mixture and luminescent signal from the mixture was measured. IC50 for each compound was calculated by setting the data of mixture without enzyme as 0% activity and that without compound as 100% activity.

human recombinant TPK1, sequence (P49841 whole entry): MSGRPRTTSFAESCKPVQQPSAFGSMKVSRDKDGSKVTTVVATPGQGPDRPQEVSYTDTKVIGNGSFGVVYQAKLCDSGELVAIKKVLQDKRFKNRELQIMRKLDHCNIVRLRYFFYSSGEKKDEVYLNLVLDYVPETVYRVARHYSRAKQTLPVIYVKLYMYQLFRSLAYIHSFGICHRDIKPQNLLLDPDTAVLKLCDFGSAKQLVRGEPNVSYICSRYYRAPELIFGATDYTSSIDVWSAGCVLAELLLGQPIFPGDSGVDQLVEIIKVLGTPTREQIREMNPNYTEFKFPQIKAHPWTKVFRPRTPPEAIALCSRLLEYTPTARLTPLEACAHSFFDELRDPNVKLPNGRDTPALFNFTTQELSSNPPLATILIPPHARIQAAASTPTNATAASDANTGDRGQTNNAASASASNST

| IC50 [nM] | SMILES |
| --- | --- |
| 5.4 | Cn1c(N2CCOC(c3ccc(-c4ncon4)cc3)CC2)nc(-c2ccncc2F)cc1=O (single isomer, unassigned; (+)) [Compound A089] |
| 6.1 | Cc1noc(-c2ccc(C3CCN(c4nc(-c5ccncc5F)cc(=O)n4C)CCO3)cc2)n1 (single isomer, unassigned; (+)) [Compound A090, (+)-2-[7-[4-(3-methyl-1,2,4-oxadiazol-5-yl)-phenyl]-1,4-oxazepan-4-yl]-6-(3-fluoropyridin-4-yl)-3-methylpyrimidin-4(3H)-one] |
| 6.8 | Cc1nc(-c2ccc(C3CCN(c4nc(-c5ccncc5F)cc(=O)n4C)CCO3)cc2)no1 (single isomer, unassigned; (+)) [Compound A091, (+)-2-[7-[4-(5-methyl-1,2,4-oxadiazol-3-yl)-phenyl]-1,4-oxazepan-4-yl]-6-(3-fluoropyridin-4-yl)-3-methylpyrimidin-4(3H)-one] |
| 10.8 | Cn1c(N2CCOC(c3ccc(Br)cc3)CC2)nc(-c2ccncn2)cc1=O (single isomer, unassigned; (+)) [Compound A096, (+)-2-[7-(4-bromophenyl)-1,4-oxazepan-4-yl]-3-methyl-6-(pyrimidin-4-yl)pyrimidin-4(3H)-one] |
| 14.7 | Cn1c(N2CCOC(c3ccc(-c4ncon4)cc3)CC2)nc(-c2ccncn2)cc1=O (single isomer, unassigned; (+)) [Compound A099, (+)-2-[7-[4-(1,2,4-oxadiazol-3-yl)-phenyl]-1,4-oxazepan-4-yl]-3-methyl-6-(pyrimidin-4-yl)pyrimidin-4(3H)-one] |
| 15 | Cc1nc(-c2ccc(C3CCN(c4nc(-c5ccncn5)cc(=O)n4C)CCO3)cc2)no1 (single isomer, unassigned; (+)) [Compound A100, (+)-2-[7-[4-(5-methyl-1,2,4-oxadiazol-3-yl)-phenyl]-1,4-oxazepan-4-yl]-3-methyl-6-(pyrimidin-4-yl)pyrimidin-4(3H)-one] |
| 16.3 | Cc1noc(-c2ccc(C3CCN(c4nc(-c5ccncn5)cc(=O)n4C)CCO3)cc2)n1 (single isomer, unassigned; (+)) [Compound A103, (+)-2-[7-[4-(3-methyl-1,2,4-oxadiazol-5-yl)-phenyl]-1,4-oxazepan-4-yl]-3-methyl-6-(pyrimidin-4-yl)pyrimidin-4(3H)-one] |
| 23 | Cn1c(N2CCOC(c3ccc(-c4ncno4)cc3)CC2)nc(-c2ccncn2)cc1=O (single isomer, unassigned; (+)) [Compound A107, (+)-2-[7-[4-(1,2,4-oxadiazol-5-yl)-phenyl]-1,4-oxazepan-4-yl]-3-methyl-6-(pyrimidin-4-yl)pyrimidin-4(3H)-one] |
| 34.7 | Cn1c(N2CCOC(c3ccc(Br)cc3)CC2)nc(-c2ccncc2F)cc1=O (single isomer, unassigned; (+)) [Compound A114, (+)-2-(7-(4-bromophenyl)-1,4-oxazepan-4-yl)-6-(3-fluoropyridin-4-yl)-3-methylpyrimidin-4(3H)-one] |
| 72.2 | Cn1c(N2CCOC(c3ccc(Br)cc3)CC2)nc(-c2ccncc2)cc1=O (single isomer, unassigned; (+)) [Compound A119, (+)-2-[7-(4-bromophenyl)-1,4-oxazepan-4-yl]-3-methyl-6-(pyridin-4-yl)pyrimidin-4(3H)-one] |
| 1.4 | Cn1c(N2CCOCC(c3ccccc3)C2)nc(-c2ccncn2)cc1=O (single isomer, unassigned; (-)) [Compound A075, (−)-2-(6-phenyl-1,4-oxazepan-4-yl)-3-methyl-6-(pyrimidin-4-yl)pyrimidin-4(3H)-one] |
| 11.3 | Cc1nc(-c2ccc(C3CCN(c4nc(-c5ccncc5F)cc(=O)n4C)CCO3)cc2)no1 (single isomer, unassigned; (-)) [Compound A097, (−)-2-[7-[4-(5-methyl-1,2,4-oxadiazol-3-yl)-phenyl]-1,4-oxazepan-4-yl]-6-(3-fluoropyridin-4-yl)-3-methylpyrimidin-4(3H)-one] |
| 17.2 | Cn1c(N2CCOC(c3ccc(-c4ncon4)cc3)CC2)nc(-c2ccncc2F)cc1=O (single isomer, unassigned; (-)) [Compound A104, (−)-2-[7-[4-(1,2,4-oxadiazol-3-yl)-phenyl]-1,4-oxazepan-4-yl]-6-(3-fluoropyridin-4-yl)-3-methylpyrimidin-4(3H)-one] |
| 29.5 | Cn1c(N2CCOC(c3ccc(-c4ncon4)cc3)CC2)nc(-c2ccncn2)cc1=O (single isomer, unassigned; (-)) [Compound A111, (−)-2-[7-[4-(1,2,4-oxadiazol-3-yl)-phenyl]-1,4-oxazepan-4-yl]-3-methyl-6-(pyrimidin-4-yl)pyrimidin-4(3H)-one] |
| 30 | Cc1nc(-c2ccc(C3CCN(c4nc(-c5ccncn5)cc(=O)n4C)CCO3)cc2)no1 (single isomer, unassigned; (-)) [Compound A112, (−)-2-[7-[4-(5-methyl-1,2,4-oxadiazol-3-yl)-phenyl]-1,4-oxazepan-4-yl]-3-methyl-6-(pyrimidin-4-yl)pyrimidin-4(3H)-one] |
| 30 | Cc1noc(-c2ccc(C3CCN(c4nc(-c5ccncc5F)cc(=O)n4C)CCO3)cc2)n1 (single isomer, unassigned; (-)) [Compound A113, (−)-2-[7-[4-(3-methyl-1,2,4-oxadiazol-5-yl)-phenyl]-1,4-oxazepan-4-yl]-6-(3-fluoropyridin-4-yl)-3-methylpyrimidin-4(3H)-one] |

| IC50 [nM] | SMILES |
| --- | --- |
| 48 | Cn1c(N2CCOC(c3ccc(-c4ncno4)cc3)CC2)nc(-c2ccncn2)cc1=O (single isomer, unassigned; (-)) [Compound A116, (−)-2-[7-[4-(1,2,4-oxadiazol-5-yl)-phenyl]-1,4-oxazepan-4-yl]-3-methyl-6-(pyrimidin-4-yl)pyrimidin-4(3H)-one] |
| 82.8 | Cn1c(N2CCOC(c3ccc(Br)cc3)CC2)nc(-c2ccncc2F)cc1=O (single isomer, unassigned; (-)) [Compound A120, (−)-2-(7-(4-bromophenyl)-1,4-oxazepan-4-yl)-6-(3-fluoropyridin-4-yl)-3-methylpyrimidin-4(3H)-one] |
| 83.4 | Cc1noc(-c2ccc(C3CCN(c4nc(-c5ccncn5)cc(=O)n4C)CCO3)cc2)n1 (single isomer, unassigned; (-)) [Compound A121, (−)-2-[7-[4-(3-methyl-1,2,4-oxadiazol-5-yl)-phenyl]-1,4-oxazepan-4-yl]-3-methyl-6-(pyrimidin-4-yl)pyrimidin-4(3H)-one] |
| 114 | Cn1c(N2CCOC(c3ccc(Br)cc3)CC2)nc(-c2ccncn2)cc1=O (single isomer, unassigned; (-)) [Compound A122, (−)-2-(7-(4-bromophenyl)-1,4-oxazepan-4-yl)-3-methyl-6-(pyrimidin-4-yl)pyrimidin-4(3H)-one] |
| 23.5 | Cc1nc(-c2ccc(C3CN(c4nc(-c5ccncn5)cc(=O)n4C)CCCO3)cc2)no1 (stereo in doubt) [Compound A034, (R)-2-[2-[4-(5-methyl-1,2,4-oxadiazol-3-yl)-phenyl]-1,4-oxazepan-4-yl]-3-methyl-6-(pyrimidin-4-yl)pyrimidin-4(3H)-one] |
| 97.5 | Cn1c(N2CCCOCC2c2ccccc2)nc(-c2ccncn2)cc1=O (stereo in doubt) [Compound A065, (S)-3-methyl-2-(3-phenyl-1,4-oxazepan-4-yl)-6-(pyrimidin-4-yl)pyrimidin-4(3H)-one] |
| 27.4 | Cn1c(N2CCCOCC2)nc(-c2ccncc2F)cc1=O [Compound A001, 6-(3-fluoropyridin-4-yl)-3-methyl-2-(1,4-oxazepan-4-yl)pyrimidin-4(3H)-one] |
| 232 | Cn1c(N2CCCOCC2)nc(-c2ccncn2)cc1=O [Compound A002, 2-(1,4-oxazepan-4-yl)-3-methyl-6-(pyrimidin-4-yl)pyrimidin-4(3H)-one] |
| 18.4 | Cn1c(N2CCCN(c3ccc(F)cc3)CC2)nc(-c2ccncc2F)cc1=O [Compound A003, 2-[4-(4-fluorophenyl)-1,4-diazepan-1-yl]-6-(3-fluoropyridin-4-yl)-3-methylpyrimidin-4(3H)-one] |
| 35.1 | Cn1c(N2CCCN(c3ccc(F)cc3)CC2)nc(-c2ccncn2)cc1=O [Compound A004, 2-[4-(4-fluorophenyl)-1,4-diazepan-1-yl]-3-methyl-6-(pyrimidin-4-yl)pyrimidin-4(3H)-one] |
| 84.2 | Cn1c(N2CCCN(c3ccc(F)cc3)CC2)nc(-c2ccncc2)cc1=O [Compound A005, 2-[4-(4-fluorophenyl)-1,4-diazepan-1-yl]-3-methyl-6-(pyridin-4-yl)pyrimidin-4(3H)-one] |
| 2.3 | Cn1c(N2CCCOC(c3ccccc3)C2)nc(-c2ccncc2F)cc1=O (stereo not shown) [Compound A006, 2-(2-phenyl-1,4-oxazepan-4-yl)-6-(3-fluoropyridin-4-yl)-3-methylpyrimidin-4(3H)-one] |
| 3.5 | Cn1c(N2CCCO[C@@H](c3ccc(C(N)=O)cc3)C2)nc(-c2ccncc2F)cc1=O [Compound A007, (S)-2-[2-(4-aminocarbonylphenyl)-1,4-oxazepan-4-yl]-6-(3-fluoropyridin-4-yl)-3-methylpyrimidin-4(3H)-one] |
| 4.5 | Cn1c(N2CCCO[C@@H](c3cccc(Br)c3)C2)nc(-c2ccncc2F)cc1=O [Compound A008, (S)-2-[2-(3-bromophenyl)-1,4-oxazepan-4-yl]-6-(3-fluoropyridin-4-yl)-3-methylpyrimidin-4(3H)-one] |
| 5.2 | Cn1c(N2CCCO[C@@H](c3ccc(Br)cc3)C2)nc(-c2ccncn2)cc1=O [Compound A009, (S)-2-[2-(4-bromophenyl)-1,4-oxazepan-4-yl]-3-methyl-6-(pyrimidin-4-yl)pyrimidin-4(3H)-one] |
